Legend:
[1] = DRUGMATRIX: Calcium Channel Type L, Phenylalkylamine radioligand binding (ligand: [3H] (-)-Desmethoxyverapamil (D-888)); assay type: cell membranes, Rattus norvegicus, Wistar, Brain, Membrane; details: Not Active = under 50% inhibition at 10 µM
[2] = molecular target: Prostaglandin G/H synthase 1 (Homo sapiens, UniProt P23219); assay: biochemical; assay type: tissue-based, Platelet; details: platelet;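 further: inhibition of COX-1 enzyme activity, with arachidonic acid supplied as substrate; in other assays of this panel Not Active means under 50% inhibition at 10 µM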
[3] = molecular target: Matrix metalloproteinase-9 (Homo sapiens, UniProt P14780); assay type: cell-based;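 further: inhibition of isolated MMP-9 enzyme activity toward a synthetic peptide substrate, from the DrugMatrix protease screening panel; in other assays of this panel Not Active means under 50% inhibition at 10 µM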
[4] = molecular target: T1, Polyunsaturated fatty acid lipoxygenase ALOX15 (Oryctolagus cuniculus, UniProt P12530); assay: biochemical; assay type: tissue-based, Reticulocytes; details: reticulocytes;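 further: inhibition of 15-lipoxygenase enzyme activity measured with linoleic acid as the substrate; in other assays of this panel Not Active means under 50% inhibition at 10 µM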
T1 sequence (P12530 whole entry): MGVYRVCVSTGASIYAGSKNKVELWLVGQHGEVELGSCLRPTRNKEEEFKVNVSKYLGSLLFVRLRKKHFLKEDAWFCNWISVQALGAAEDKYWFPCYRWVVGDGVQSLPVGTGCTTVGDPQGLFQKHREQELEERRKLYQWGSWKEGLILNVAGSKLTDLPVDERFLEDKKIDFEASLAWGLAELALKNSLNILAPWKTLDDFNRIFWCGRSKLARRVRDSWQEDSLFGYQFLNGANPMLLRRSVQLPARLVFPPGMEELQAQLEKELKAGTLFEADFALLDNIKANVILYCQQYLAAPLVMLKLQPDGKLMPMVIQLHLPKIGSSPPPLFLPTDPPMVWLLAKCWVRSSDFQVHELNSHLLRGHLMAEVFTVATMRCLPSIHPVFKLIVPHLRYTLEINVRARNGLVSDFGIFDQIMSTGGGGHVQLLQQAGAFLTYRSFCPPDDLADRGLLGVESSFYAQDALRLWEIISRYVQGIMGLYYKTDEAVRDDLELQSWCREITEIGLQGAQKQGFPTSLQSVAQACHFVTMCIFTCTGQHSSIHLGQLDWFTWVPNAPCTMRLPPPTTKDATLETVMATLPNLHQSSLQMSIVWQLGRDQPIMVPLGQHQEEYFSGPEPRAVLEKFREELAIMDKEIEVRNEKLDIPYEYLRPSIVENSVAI

[5] = molecular target: T2, Alpha-2A adrenergic receptor (Homo sapiens, UniProt P08913); assay type: cell membranes, Sf9, Membrane; further: in other assays of this panel Not Active means under 50% inhibition at 10 µM
T2 sequence (P08913 whole entry): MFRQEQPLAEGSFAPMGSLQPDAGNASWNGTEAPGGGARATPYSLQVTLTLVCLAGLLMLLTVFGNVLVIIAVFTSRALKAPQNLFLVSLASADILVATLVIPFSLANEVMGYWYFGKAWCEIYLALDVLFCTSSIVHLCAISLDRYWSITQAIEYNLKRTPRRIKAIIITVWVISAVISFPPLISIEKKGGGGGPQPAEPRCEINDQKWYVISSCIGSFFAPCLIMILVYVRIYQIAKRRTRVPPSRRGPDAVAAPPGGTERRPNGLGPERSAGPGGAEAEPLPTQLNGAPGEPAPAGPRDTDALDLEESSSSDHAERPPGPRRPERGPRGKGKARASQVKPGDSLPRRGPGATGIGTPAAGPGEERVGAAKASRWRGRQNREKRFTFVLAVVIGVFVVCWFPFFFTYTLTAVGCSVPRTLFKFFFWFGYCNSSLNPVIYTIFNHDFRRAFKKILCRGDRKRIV

[6] = molecular target: T3, Neuropeptide Y receptor type 1 (Homo sapiens, UniProt P25929); assay type: cell membranes, Membrane; details: sk-n-mc; further: in other assays of this panel Not Active means under 50% inhibition at 10 µM
T3 sequence (P25929 whole entry): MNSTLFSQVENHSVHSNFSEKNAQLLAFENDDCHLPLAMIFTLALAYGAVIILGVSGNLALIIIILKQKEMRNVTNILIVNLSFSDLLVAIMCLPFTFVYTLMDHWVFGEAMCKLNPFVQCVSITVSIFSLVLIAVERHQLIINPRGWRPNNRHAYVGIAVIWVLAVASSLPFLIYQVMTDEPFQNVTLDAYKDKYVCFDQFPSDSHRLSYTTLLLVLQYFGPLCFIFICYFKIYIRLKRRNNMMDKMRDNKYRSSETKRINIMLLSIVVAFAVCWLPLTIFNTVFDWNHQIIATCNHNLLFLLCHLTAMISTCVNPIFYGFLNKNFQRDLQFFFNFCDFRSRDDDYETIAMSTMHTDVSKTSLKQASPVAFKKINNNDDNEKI

[7] = molecular target: T4, Nitric oxide synthase, inducible (Mus musculus, UniProt P29477); set-up: species or system Escherichia coli
T4 sequence (P29477 whole entry): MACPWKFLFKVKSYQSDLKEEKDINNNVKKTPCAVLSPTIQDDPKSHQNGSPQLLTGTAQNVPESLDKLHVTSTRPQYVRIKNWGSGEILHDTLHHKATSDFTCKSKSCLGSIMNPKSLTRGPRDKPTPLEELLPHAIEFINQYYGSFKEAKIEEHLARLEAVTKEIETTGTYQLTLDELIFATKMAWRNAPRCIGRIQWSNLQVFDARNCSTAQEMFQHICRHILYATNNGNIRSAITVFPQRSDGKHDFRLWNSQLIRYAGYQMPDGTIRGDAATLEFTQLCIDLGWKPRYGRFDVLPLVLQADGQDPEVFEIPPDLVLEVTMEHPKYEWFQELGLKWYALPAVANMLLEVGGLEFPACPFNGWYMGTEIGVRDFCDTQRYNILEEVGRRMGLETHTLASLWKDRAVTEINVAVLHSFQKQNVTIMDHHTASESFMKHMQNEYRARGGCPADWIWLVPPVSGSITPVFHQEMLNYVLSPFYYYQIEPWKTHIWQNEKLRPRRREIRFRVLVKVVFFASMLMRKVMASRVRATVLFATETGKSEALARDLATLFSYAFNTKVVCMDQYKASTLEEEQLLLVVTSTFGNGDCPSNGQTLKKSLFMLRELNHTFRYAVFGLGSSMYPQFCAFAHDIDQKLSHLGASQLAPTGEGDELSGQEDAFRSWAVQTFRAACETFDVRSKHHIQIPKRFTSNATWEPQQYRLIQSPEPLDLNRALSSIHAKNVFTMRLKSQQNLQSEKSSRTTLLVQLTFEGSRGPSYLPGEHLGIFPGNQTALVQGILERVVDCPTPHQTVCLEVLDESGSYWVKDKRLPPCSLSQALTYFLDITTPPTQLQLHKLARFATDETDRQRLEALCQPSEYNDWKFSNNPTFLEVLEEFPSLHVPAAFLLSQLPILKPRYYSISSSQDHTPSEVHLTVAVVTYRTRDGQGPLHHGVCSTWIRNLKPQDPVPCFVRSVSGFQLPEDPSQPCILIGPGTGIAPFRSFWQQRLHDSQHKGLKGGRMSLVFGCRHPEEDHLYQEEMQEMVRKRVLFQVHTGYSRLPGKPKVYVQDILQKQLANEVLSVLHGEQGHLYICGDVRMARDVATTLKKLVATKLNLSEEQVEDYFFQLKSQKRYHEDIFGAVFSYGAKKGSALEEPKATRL

[8] = molecular target: Sodium-dependent dopamine transporter (Homo sapiens, UniProt Q01959); assay: DRUGMATRIX: Dopamine Transporter radioligand binding (ligand: [125I] RTI-55); assay type: cell membranes, CHO-K1, Membrane; details: Not Active = under 50% inhibition at 10 µM
Sodium-dependent dopamine transporter, sequence (Q01959 whole entry): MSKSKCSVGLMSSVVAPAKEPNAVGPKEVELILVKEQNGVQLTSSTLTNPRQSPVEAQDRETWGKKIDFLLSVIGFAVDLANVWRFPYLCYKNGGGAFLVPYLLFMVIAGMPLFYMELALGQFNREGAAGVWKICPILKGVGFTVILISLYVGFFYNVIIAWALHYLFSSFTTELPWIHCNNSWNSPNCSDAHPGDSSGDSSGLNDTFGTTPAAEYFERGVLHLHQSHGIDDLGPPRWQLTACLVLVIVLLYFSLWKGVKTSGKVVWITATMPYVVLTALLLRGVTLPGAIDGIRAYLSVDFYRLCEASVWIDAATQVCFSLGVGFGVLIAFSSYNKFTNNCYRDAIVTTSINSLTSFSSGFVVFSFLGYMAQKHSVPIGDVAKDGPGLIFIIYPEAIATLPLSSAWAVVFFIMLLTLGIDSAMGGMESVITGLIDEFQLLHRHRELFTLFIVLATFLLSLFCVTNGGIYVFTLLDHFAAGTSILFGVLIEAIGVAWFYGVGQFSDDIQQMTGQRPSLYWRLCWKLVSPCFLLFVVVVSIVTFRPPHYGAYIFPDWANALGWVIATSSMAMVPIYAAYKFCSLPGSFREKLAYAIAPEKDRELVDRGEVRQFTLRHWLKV

Matrix metalloproteinase-9, sequence (P14780 whole entry): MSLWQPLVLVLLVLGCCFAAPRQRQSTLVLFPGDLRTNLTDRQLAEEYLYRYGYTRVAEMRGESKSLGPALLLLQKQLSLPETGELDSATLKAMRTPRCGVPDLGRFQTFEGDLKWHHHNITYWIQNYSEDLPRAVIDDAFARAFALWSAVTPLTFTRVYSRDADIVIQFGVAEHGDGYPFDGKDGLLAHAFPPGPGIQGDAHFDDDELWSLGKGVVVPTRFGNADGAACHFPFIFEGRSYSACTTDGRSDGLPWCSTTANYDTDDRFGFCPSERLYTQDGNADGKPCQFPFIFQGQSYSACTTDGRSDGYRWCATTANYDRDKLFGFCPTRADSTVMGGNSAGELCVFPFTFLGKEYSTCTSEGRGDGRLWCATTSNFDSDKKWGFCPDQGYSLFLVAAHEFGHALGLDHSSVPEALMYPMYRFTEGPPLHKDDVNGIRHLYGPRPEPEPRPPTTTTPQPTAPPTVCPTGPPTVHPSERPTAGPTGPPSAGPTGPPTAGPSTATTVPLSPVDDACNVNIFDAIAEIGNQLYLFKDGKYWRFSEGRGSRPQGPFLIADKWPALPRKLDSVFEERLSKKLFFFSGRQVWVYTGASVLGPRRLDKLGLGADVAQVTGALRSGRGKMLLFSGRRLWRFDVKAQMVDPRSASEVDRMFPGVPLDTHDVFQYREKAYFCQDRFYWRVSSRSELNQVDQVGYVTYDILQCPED
Prostaglandin G/H synthase 1, sequence (P23219 whole entry): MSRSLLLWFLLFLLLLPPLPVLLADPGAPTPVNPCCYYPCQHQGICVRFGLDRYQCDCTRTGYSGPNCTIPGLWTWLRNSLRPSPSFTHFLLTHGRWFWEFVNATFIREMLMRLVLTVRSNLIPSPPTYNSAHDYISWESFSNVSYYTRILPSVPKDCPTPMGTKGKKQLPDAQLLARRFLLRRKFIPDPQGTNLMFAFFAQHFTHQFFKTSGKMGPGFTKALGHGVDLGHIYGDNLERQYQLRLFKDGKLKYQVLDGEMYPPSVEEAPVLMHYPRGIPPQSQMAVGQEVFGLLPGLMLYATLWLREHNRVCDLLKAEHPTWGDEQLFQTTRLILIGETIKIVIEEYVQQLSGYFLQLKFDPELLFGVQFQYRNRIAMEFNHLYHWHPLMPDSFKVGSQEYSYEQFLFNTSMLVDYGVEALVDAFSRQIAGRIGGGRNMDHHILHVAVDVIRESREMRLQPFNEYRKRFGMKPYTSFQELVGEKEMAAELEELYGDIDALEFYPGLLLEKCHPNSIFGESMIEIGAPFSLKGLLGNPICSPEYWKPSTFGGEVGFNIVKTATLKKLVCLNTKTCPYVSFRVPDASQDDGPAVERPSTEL

Compound | IC50 [1] | Ki [1] | IC50 [2] | IC50 [3] | IC50 [4] | IC50 ([5]; sf9) | IC50 [6] | IC50 [7] | IC50 ([8]; cho-k1) | IC50 ([5]; read-out: IC50) [µM] | IC50 ([8]; read-out: IC50) [µM] | Ki ([8]; read-out: Ki) [µM]
CCOC(=O)[C@H](CCc1ccccc1)N[C@@H](C)C(=O)N1[C@H](C(=O)O)C[C@@H]2CCC[C@@H]21 | Not Active | Not Active | Not Active | Not Active | Not Active | Not Active | Not Active | Not Active | Not Active | – | – | –
CC(C)(C)NC(=O)[C@@H]1CN(Cc2cccnc2)CCN1C[C@@H](O)C[C@@H](Cc1ccccc1)C(=O)N[C@H]1c2ccccc2C[C@H]1O.O | Not Active | Not Active | Not Active | Not Active | Not Active | Not Active | Not Active | Not Active | Not Active | – | – | –
CC1(C)[C@H]2CC[C@]1(C)C(=O)C2 [(-)-CAMPHOR] | Not Active | Not Active | Not Active | Not Active | Not Active | Not Active | Not Active | Not Active | Not Active | – | – | –
CC(C)(C)NCC(O)c1ccc(O)c(CO)c1 (configuration not stated) [ALBUTEROL] | Not Active | Not Active | Not Active | Not Active | Not Active | Not Active | Not Active | Not Active | Not Active | – | – | –
COc1ccc(CCN2CCC(Nc3nc4ccccc4n3Cc3ccc(F)cc3)CC2)cc1 [ASTEMIZOLE] | – | – | Not Active | Not Active | Not Active | – | Not Active | Not Active | – | – | – | –
CN(C)CCCN1c2ccccc2CCc2ccc(Cl)cc21 [CLOMIPRAMINE] | – | – | Not Active | Not Active | Not Active | – | Not Active | Not Active | – | 1.41 | – | –
Clc1ccccc1C(c1ccccc1)(c1ccccc1)n1ccnc1 [CLOTRIMAZOLE] | – | – | Not Active | Not Active | Not Active | – | Not Active | Not Active | – | – | 5.58 | 4.43
O=C(CCCN1CCC(O)(c2ccc(Cl)cc2)CC1)c1ccc(F)cc1 [HALOPERIDOL] | – | – | Not Active | Not Active | Not Active | – | Not Active | Not Active | – | – | – | –
Oc1c(I)cc(I)c2cccnc12 [IODOQUINOL] | Not Active | Not Active | Not Active | Not Active | Not Active | Not Active | Not Active | Not Active | Not Active | – | – | –
NNC(=O)c1ccncc1 [ISONIAZID] | Not Active | Not Active | Not Active | Not Active | Not Active | Not Active | Not Active | Not Active | Not Active | – | – | –
CC1=C(/C=C/C(C)=C/C=C/C(C)=C\C(=O)O)C(C)(C)CCC1 [ISOTRETINOIN] | Not Active | Not Active | Not Active | Not Active | Not Active | Not Active | Not Active | Not Active | Not Active | – | – | –
CN1CCN2c3ccccc3Cc3ccccc3C2C1 (configuration not stated) [MIANSERIN] | – | – | Not Active | Not Active | Not Active | – | Not Active | Not Active | Not Active | – | – | –
CC(C)(O)c1ccccc1CC[C@@H](SCC1(CC(=O)O)CC1)c1cccc(/C=C/c2ccc3ccc(Cl)cc3n2)c1 [MONTELUKAST] | – | – | Not Active | Not Active | Not Active | – | Not Active | Not Active | – | – | – | –
CSc1ccc2c(c1)N(CCC1CCCCN1C)c1ccccc1S2 (configuration not stated) [THIORIDAZINE] | – | – | Not Active | Not Active | Not Active | – | Not Active | Not Active | – | – | – | –
COc1cccc(C2(O)CCCCC2CN(C)C)c1 (configuration not stated) [TRAMADOL] | – | – | Not Active | Not Active | Not Active | Not Active | Not Active | Not Active | Not Active | – | – | –
COC(=O)[C@@H]1[C@H]2C[C@H]3c4[nH]c5ccccc5c4CCN3C[C@@H]2CC[C@@H]1O [YOHIMBINE] | Not Active | Not Active | Not Active | Not Active | Not Active | – | Not Active | Not Active | Not Active | – | – | –

Reference: ChEMBL document CHEMBL1909046, “DrugMatrix in vitro pharmacology data”
